{"source": "paper PMC3057995", "about": "“Potent Anti-Tumor Effect Generated by a Novel Human Papillomavirus (HPV) Antagonist Peptide Reactivating the pRb/E2F Pathway” (PLoS ONE, 2011)", "key": {"[1]": {"test_system": "NIH/3T3 embryonic fibroblast cells", "assay": "MTT cell viability assay, NIH 3T3", "format": "cell-based, mouse", "details": "NIH 3T3, HPV-negative; data not shown", "text": "HPV16-positive SiHa and CaSki cervical carcinoma cells were supplied by China Center for Type Culture Collection (CCTCC). The following cell lines used in this project were from our laboratory: HPV18-positive HeLa cervical carcinoma cells, CNE nasopharyngeal carcinoma cells, HaCat human keratinocyte cells, COS7 (African green monkey SV40-transformed kidney fibroblast cell line), 293T (human kidney epithelial cells), and NIH/3T3 mouse embryonic fibroblast cells. All cells were maintained in a humidified atmosphere of 5% CO2, Dulbecco's modified Eagle's medium (DMEM, pH 7.2), supplemented with 10% fetal calf serum (FCS).\nCell viability was determined with an MTT assay. Briefly, the cells were seeded into 96-well plates at a density of 4–5×10^3 cells/well. The cells were allowed to recover for 24 h before the medium was replaced with DMEM supplemented with peptides at different concentrations. The solvent of the peptides was set as the control. The peptide-supplemented medium was replaced daily and the respective concentrations were maintained. The cells were subjected to an MTT cell proliferation assay at different time points. The plates were incubated at 37°C for 3 h with the addition of 20 µl/well MTT (5 mg/ml). Untransformed MTT in the solution was removed by aspiration. […] The optical density of the formazan solutions was measured by microplate reader at 540 nm."}, "HeLa cells": {"test_system": "HeLa cells", "assay": "Clonogenic assay, HeLa", "format": "cell-based", "details": "16 through 160 µM, 8 days, p>0.1", "procedure": "Cells were seeded in DMEM at 1×10^3 cells/well density in 12-well plates and allowed to attach to the substrate overnight. Thereafter, cells were treated with 0 µM, 16 µM, 32 µM, 80 µM, and 160 µM peptide in DMEM, and the medium was changed every three days. The plates were observed daily for colony formation. After 8 (for HeLa cells) or 14 (for SiHa and CaSki cells) days of treatment, the cultures were washed three times with PBS and stained with crystal violet in ethanol for 15 min. The colonies were then counted and photographed with the Alphalmager® EP image acquisition system (Alpha Innotech, Santa Clara, CA, USA)."}, "SiHa cells": {"test_system": "SiHa cells", "assay": "PI staining cell cycle analysis by flow cytometry", "format": "cell-based", "details": "for percentage of cells in S-phase: control 25.96%", "procedure": "Cell cycle distribution was determined by flow cytometry DNA analysis. […] After 24 h, cells were harvested and counterstained with PI (Invitrogen, Carlsbad, CA, USA) for flow cytometry according to the manufacturer's instructions. Briefly, cells were trypsinized and resuspended in 1 ml PBS. Cell suspension was dropped slowly into 4 ml anhydrous ethanol pre-cooled at −20°C and mixed. After standing at −20°C for more than 15 min, the ethanol was removed by centrifugation, after which 5 ml PBS was added and mixed, and cells were re-hydrated at room temperature for 15 min. PBS was then removed by centrifugation. Cells were stained with 2 µg/ml propidium iodide in 1 ml dilution buffer (100 mmol/L Tris, pH 7.4, 150 mmol/L NaCl, 1 mmol/L CaCl2, 0.5 mmol/L MgCl2, 0.1% Nonidet P-40, 100 µg/ml RNAase) at room temperature for 15 min and subjected to flow cytometry analysis. Analysis was performed on an Epics-XL flow cytometer (Beckman Coulter, Inc. CA, USA) with Modfit 3.0 software (Verity Software House, Topsham, ME, USA)."}, "pRb": {"test_system": "pRb", "assay": "Immunohistochemistry of tumor tissues, pRb", "format": "in vivo, mouse (Balb/C-nu/nu)", "details": "400 µg/mouse group vs control", "procedure": "Three or two mice bearing tumor of each group were prelabeled with intra-peritoneal injection of BrdU (100 mg/kg, Sigma-Aldrich, Inc., Aaint Louis, MO, USA) 15 hours before sacrificed. Tumor specimens were then prepared as formalin-fixed, paraffin-embedded sections for hematoxylin-eosin staining, BrdU and pRb immunohistochemical staining as previously described, [57]. In brief, immunostaining was performed on formalin-fixed, paraffin-embedded sections using the anti-pRb monoclonal and anti- BrdU monoclonal antibodies, respectively. Before the application of the primary antibodies, an antigen retrieval technique was performed. […] The antibodies were detected by means of the Strept Avidin-Biotin Complex (SABC) method (Wuhan Boster Biological Technology, Ltd., Wuhan, P.R. China.) according to the manufacturer's instructions. Stained slides were examined under a Nikon ECLIPSE TE2000-U microscope (Nikon Corporation, Tokyo, Japan) and images were collected and analyzed with Pixera Penguin 600CL DiRactor™ (Pixera Corporation, Los Gatos, CA, USA). BrdU or pRb-positive cells were counted in each section. The total cell number was determined by nuclear staining with hematoxylin. At least 1000 total cells for each case were counted."}}, "note": "“Also recorded” adds a separate entry of the source.", "data": [{"sequence": "SACPKGLDWCGG (C&C bridged by disulfide bonds) (disulfide) [Pep-7]", "values": [{"measurement": "cell proliferation (MTT)", "setting": "[1]", "value": "negligible effect"}, {"measurement": "colony formation", "setting": "HeLa cells", "value": "not influenced"}, {"measurement": "percentage of cells in S-phase", "setting": "SiHa cells; 32 µM Pep-7, 24 h", "value": 14.75, "unit": "%"}, {"measurement": "percentage of cells in S-phase", "setting": "SiHa cells; 80 µM Pep-7, 24 h", "value": 8.75, "unit": "%"}, {"measurement": "G1-to-S phase transition", "setting": "SiHa cells; 24 h, 32 and 80 µM, p<0.02", "value": "inhibited G1-to-S phase transition of SiHa cells significantly; also recorded: induced G1 arrest in SiHa cells"}, {"measurement": "pRb protein level in tumor tissue", "setting": "pRb", "value": "increased"}]}]}
